Experiments:
[1] = test system: URAT1; test: URAT1 expression in mouse kidney by ELISA kit; format: in vivo; conditions: allopurinol group; normal 96.95, model 104.85 pg/mL
Protocol: (§1) Except for the normal control group by intraperitoneal injection and intragastric administration of distilled water, the other groups were intraperitoneally injected with oxazine potassium salt at a dose of 100 mg/kg/d, and simultaneously intragastrically with a dose of 600 mg/kg/d hypoxanthine for modeling. […] Low, middle, and high-dose Agrocybe aegerita water extract administration group (Agrocybe aegerita water extract, AAW) were respectively 50, 100, 200 mg/kg concentration of the Agrocybe aegerita water extract prepared in Example 2 100 mg/kg/d for intragastric administration. The normal control group and the hyperuricemia model control group were gavage with the same volume of pure water for 7 consecutive days, and in the 1, 3, 5, and 7 days to weigh the mice.
(4) Take the organs obtained in step (2) and calculate the organ coefficients (liver coefficient, spleen coefficient and kidney coefficient) by dividing […]. […]
(§2) (8) Statistical analysis is performed using the professional data processing program SPSS (Release 11.5, SPSS Inc., 2001). All data are expressed as mean±standard error (S.D.) and analyzed by one-way analysis of variance (ANOVA), and group means were compared by two-tailed Student's t test. […]

[2] = test system: hyperuricemia mice; test: Kidney (renal) coefficient and kidney observation of mice; format: in vivo, Kunming mice
Protocol: (§3) Except for the normal control group by intraperitoneal injection and intragastric administration of distilled water, the other groups were intraperitoneally injected with oxazine potassium salt at a dose of 100 mg/kg/d, and simultaneously intragastrically with a dose of 600 mg/kg/d hypoxanthine for modeling. […] Low, middle, and high-dose Agrocybe aegerita water extract administration group (Agrocybe aegerita water extract, AAW) were respectively 50, 100, 200 mg/kg concentration of the Agrocybe aegerita water extract prepared in Example 2 100 mg/kg/d for intragastric administration. […] The blood samples were separated and the serum was stored at −20° C. The organs of the mice were removed, including the liver, spleen, and kidneys, and washed with physiological saline solution. Then blot it dry with an ordinary filter and weigh it. […] The supernatant was retained for XOD activity analysis and Western blot analysis. (8) Statistical analysis is performed using the professional data processing program SPSS (Release 11.5, SPSS Inc., 2001). All data are expressed as mean±standard error (S.D.) and analyzed by one-way analysis of variance (ANOVA), and group means were compared by two-tailed Student's t test. Differences with statistical significance (P<0.05 or P<0.01) are indicated by the following symbols: There is a differences from the normal control group: *P<0.05, **P<0.01. […]

[3] = Body weight change of mice; format: in vivo, Kunming mice; conditions: compared with normal group, 7 days, all doses
Protocol: Except for the normal control group by intraperitoneal injection and intragastric administration of distilled water, the other groups were intraperitoneally injected with oxazine potassium salt at a dose of 100 mg/kg/d, and simultaneously intragastrically with a dose of 600 mg/kg/d hypoxanthine for modeling. […] Low, middle, and high-dose Agrocybe aegerita water extract administration group (Agrocybe aegerita water extract, AAW) were respectively 50, 100, 200 mg/kg concentration of the Agrocybe aegerita water extract prepared in Example 2 100 mg/kg/d for intragastric administration. […] (8) Statistical analysis is performed using the professional data processing program SPSS (Release 11.5, SPSS Inc., 2001). All data are expressed as mean±standard error (S.D.) and analyzed by one-way analysis of variance (ANOVA), and group means were compared by two-tailed Student's t test. Differences with statistical significance (P<0.05 or P<0.01) are indicated by the following symbols: There is a differences from the normal control group: *P<0.05, **P<0.01. There is a difference between the control and PO and HX-induced hyperuricemia model group, #P<0.05, ##P<0.01.

[4] = test system: hyperuricemia mice; test: Liver coefficient of mice; format: in vivo, Kunming mice; conditions: all treatment groups
Protocol: as §3

[5] = test system: hyperuricemia mice; test: Serum urea nitrogen (BUN) level, renal function of hyperuricemia mice; format: in vivo, Kunming mice; conditions: allopurinol group; normal 4.47, model 5.96 mmol/L
Protocol: (§4) Except for the normal control group by intraperitoneal injection and intragastric administration of distilled water, the other groups were intraperitoneally injected with oxazine potassium salt at a dose of 100 mg/kg/d, and simultaneously intragastrically with a dose of 600 mg/kg/d hypoxanthine for modeling. […] Low, middle, and high-dose Agrocybe aegerita water extract administration group (Agrocybe aegerita water extract, AAW) were respectively 50, 100, 200 mg/kg concentration of the Agrocybe aegerita water extract prepared in Example 2 100 mg/kg/d for intragastric administration. […] The blood samples were separated and the serum was stored at −20° C. The organs of the mice were removed, including the liver, spleen, and kidneys, and washed with physiological saline solution. Then blot it dry with an ordinary filter and weigh it. […] (8) Statistical analysis is performed using the professional data processing program SPSS (Release 11.5, SPSS Inc., 2001). All data are expressed as mean±standard error (S.D.) and analyzed by one-way analysis of variance (ANOVA), and group means were compared by two-tailed Student's t test. Differences with statistical significance (P<0.05 or P<0.01) are indicated by the following symbols: There is a differences from the normal control group: *P<0.05, **P<0.01. […]

[6] = test system: hyperuricemia mice; test: Urine uric acid level in hyperuricemia mice; format: in vivo, Kunming mice; conditions: normal 605, model 293 μmol/L
Protocol: as §4

[7] = test system: hyperuricemia mice; test: Serum uric acid level in potassium oxonate + hypoxanthine hyperuricemia mice; format: in vivo, Kunming mice; conditions: 7 days, normal 196, model 313 μmol/L
Protocol: as §4

[8] = test system: OAT1 (organic anion transporter 1); test: Western blot of kidney samples, OAT1 protein expression; format: in vivo, mouse; conditions: compared with the model group, each dose group
Protocol: as §1, with “mice. […]” for “mice.”
(7) Western blot analysis of kidney samples. Using GAPDH (glyceraldehyde-3-phosphate dehydrogenase) as an internal control, the expression of proteins including URAT1 (urate transporter 1) and OAT1 (organic anion transporter 1) were detected.
as §2

SMILES | URAT1 protein expression level (ELISA, kidney) [1] | renal coefficient ([2]; allopurinol group, normal 1.25%) | kidney observation ([2]; not observed in other groups) | effect on body weight [3] | liver coefficient, effect on liver function [4] | serum BUN [5] | urine uric acid level ([6]; allopurinol group (5 mg/kg per method)) | blood uric acid of hyperuricemia mice ([7]; 5 mg/kg intragastric) | OAT1 protein expression (Western blot, gray analysis) [8] | urine uric acid level ([6]; 7.8 mg/kg) | blood uric acid of hyperuricemia mice ([7]; 7.8 mg/kg intragastric)
Oc1ncnc2[nH]ncc12 [allopurinol] | 151.96 pg/mL | 1.42% | vesicular nephritis was observed | inhibited the weight increase of mice | little effect on liver function | 4.74 mmol/L | 267 µmol/L | 105 µmol |  |  | 
CCc1oc2ccccc2c1C(=O)c1cc(Br)c(O)c(Br)c1 [benzbromarone] |  |  |  |  |  |  |  |  | increase the expression of OAT1 | 408 µmol/L | 206 µmol
